Test results as given in ChEMBL document CHEMBL4507294, “Data for DCP probe MSD-CYP11B2” (2021).

Columns and labels:
[1] = target: Tyrosine-protein kinase CSK (Homo sapiens) (UniProt P41240); settings: Compound concentration 1000.0 nM
[2] = target: Ephrin type-A receptor 7 (Homo sapiens) (UniProt Q15375); settings: Compound concentration 1000.0 nM
[3] = target: Protein kinase C iota type (Homo sapiens) (UniProt P41743); settings: Compound concentration 1000.0 nM
[4] = target: Mitogen-activated protein kinase kinase kinase 11 (Homo sapiens) (UniProt Q16584); settings: Compound concentration 1000.0 nM
[5] = target: Interferon-induced, double-stranded RNA-activated protein kinase (Homo sapiens) (UniProt P19525); settings: Compound concentration 1000.0 nM
[6] = target: Myosin light chain kinase family member 4 (Homo sapiens) (UniProt Q86YV6); settings: Compound concentration 1000.0 nM
[7] = target: Serine/threonine-protein kinase MRCK gamma (Homo sapiens) (UniProt Q6DT37); settings: Compound concentration 1000.0 nM
[8] = test system: Tyrosine-protein kinase ABL1 (Homo sapiens), P00519 [Q252H]; settings: Compound concentration 1000.0 nM
[9] = target: Non-receptor tyrosine-protein kinase TYK2 (Homo sapiens) (UniProt P29597); settings: Compound concentration 1000.0 nM
[10] = target: Receptor tyrosine-protein kinase erbB-2 (Homo sapiens) (UniProt P04626); settings: Compound concentration 1000.0 nM
[11] = test system: Phosphatidylinositol 4,5-bisphosphate 3-kinase catalytic subunit alpha isoform (Homo sapiens), P42336 [C420R]; settings: Compound concentration 1000.0 nM
[12] = target: Serine/threonine-protein kinase Nek1 (Homo sapiens) (UniProt Q96PY6); settings: Compound concentration 1000.0 nM
[13] = target: Protein-tyrosine kinase 6 (Homo sapiens) (UniProt Q13882); settings: Compound concentration 1000.0 nM
Sequence of Protein-tyrosine kinase 6 (Homo sapiens) (Q13882 whole entry, looked up): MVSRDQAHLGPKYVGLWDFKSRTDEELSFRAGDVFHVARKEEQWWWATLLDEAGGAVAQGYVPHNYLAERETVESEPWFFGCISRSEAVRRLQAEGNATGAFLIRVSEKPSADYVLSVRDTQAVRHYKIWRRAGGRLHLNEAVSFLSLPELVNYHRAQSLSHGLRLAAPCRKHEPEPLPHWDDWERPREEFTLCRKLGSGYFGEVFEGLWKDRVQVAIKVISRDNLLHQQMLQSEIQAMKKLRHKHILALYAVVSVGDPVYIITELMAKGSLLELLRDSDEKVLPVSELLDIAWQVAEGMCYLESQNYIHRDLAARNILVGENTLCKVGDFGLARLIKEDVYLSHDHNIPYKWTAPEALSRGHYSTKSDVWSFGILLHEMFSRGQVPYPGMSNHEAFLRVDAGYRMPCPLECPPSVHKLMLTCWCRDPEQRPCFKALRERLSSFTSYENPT

[14] = test system: Mast/stem cell growth factor receptor Kit (Homo sapiens), P10721 [V559D,T670I]; settings: Compound concentration 1000.0 nM
Sequence of Mast/stem cell growth factor receptor Kit (Homo sapiens), P10721 [V559D,T670I] (P10721 whole entry V559D/T670I): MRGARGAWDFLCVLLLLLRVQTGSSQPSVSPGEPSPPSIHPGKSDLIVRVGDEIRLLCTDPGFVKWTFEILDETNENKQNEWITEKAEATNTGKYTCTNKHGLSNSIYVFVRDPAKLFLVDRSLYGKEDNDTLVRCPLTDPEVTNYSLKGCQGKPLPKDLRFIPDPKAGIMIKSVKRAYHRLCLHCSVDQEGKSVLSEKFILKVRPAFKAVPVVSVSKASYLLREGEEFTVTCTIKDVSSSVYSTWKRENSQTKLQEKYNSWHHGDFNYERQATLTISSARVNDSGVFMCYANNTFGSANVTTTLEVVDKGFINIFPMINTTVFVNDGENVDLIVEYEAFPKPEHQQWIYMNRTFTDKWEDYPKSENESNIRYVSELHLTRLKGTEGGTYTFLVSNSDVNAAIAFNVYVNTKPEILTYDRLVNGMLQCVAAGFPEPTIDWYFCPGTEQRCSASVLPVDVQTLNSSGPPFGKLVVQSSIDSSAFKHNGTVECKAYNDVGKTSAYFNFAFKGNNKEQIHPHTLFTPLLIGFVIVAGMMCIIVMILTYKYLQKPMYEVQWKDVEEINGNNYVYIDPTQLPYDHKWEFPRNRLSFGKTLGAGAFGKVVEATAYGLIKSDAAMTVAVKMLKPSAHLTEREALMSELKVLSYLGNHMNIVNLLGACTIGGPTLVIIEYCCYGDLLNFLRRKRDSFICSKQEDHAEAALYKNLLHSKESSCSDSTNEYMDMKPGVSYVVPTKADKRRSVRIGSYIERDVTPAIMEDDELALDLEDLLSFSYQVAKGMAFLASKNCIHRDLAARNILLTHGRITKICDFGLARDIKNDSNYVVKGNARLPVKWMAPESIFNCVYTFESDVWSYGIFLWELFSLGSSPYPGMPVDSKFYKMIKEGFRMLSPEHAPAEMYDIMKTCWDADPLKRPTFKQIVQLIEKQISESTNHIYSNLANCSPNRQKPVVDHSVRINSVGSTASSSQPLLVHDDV

[15] = target: Epidermal growth factor receptor (Homo sapiens) (UniProt P00533); settings: Compound concentration 1000.0 nM
[16] = target: Serine/threonine-protein kinase SBK1 (Homo sapiens) (UniProt Q52WX2); settings: Compound concentration 1000.0 nM
[17] = target: Inhibitor of nuclear factor kappa-B kinase subunit epsilon (Homo sapiens) (UniProt Q14164); settings: Compound concentration 1000.0 nM
[18] = target: Serine/threonine-protein kinase WNK1 (Homo sapiens) (UniProt Q9H4A3); settings: Compound concentration 1000.0 nM
[19] = target: Serine/threonine-protein kinase pim-3 (Homo sapiens) (UniProt Q86V86); settings: Compound concentration 1000.0 nM
[20] = target: RAC-beta serine/threonine-protein kinase (Homo sapiens) (UniProt P31751); settings: Compound concentration 1000.0 nM
[21] = target: Activin receptor type-1 (Homo sapiens) (UniProt Q04771); settings: Compound concentration 1000.0 nM
Sequence of Activin receptor type-1 (Homo sapiens) (Q04771 whole entry): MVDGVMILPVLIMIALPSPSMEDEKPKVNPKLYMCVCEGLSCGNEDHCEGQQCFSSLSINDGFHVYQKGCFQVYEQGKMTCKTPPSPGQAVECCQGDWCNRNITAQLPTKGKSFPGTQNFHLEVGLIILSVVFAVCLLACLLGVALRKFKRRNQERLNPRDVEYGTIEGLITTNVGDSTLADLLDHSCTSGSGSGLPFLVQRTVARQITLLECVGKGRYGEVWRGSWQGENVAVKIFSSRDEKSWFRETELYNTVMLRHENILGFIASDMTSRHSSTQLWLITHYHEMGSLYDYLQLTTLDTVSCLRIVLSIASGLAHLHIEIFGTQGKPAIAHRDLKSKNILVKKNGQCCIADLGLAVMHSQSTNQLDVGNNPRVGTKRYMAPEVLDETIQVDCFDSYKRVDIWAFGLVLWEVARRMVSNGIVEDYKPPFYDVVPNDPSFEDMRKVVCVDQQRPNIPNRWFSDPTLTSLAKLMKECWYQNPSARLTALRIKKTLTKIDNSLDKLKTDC

[22] = target: Dual specificity protein kinase TTK (Homo sapiens) (UniProt P33981); settings: Compound concentration 1000.0 nM
Sequence of Dual specificity protein kinase TTK (Homo sapiens) (P33981 whole entry): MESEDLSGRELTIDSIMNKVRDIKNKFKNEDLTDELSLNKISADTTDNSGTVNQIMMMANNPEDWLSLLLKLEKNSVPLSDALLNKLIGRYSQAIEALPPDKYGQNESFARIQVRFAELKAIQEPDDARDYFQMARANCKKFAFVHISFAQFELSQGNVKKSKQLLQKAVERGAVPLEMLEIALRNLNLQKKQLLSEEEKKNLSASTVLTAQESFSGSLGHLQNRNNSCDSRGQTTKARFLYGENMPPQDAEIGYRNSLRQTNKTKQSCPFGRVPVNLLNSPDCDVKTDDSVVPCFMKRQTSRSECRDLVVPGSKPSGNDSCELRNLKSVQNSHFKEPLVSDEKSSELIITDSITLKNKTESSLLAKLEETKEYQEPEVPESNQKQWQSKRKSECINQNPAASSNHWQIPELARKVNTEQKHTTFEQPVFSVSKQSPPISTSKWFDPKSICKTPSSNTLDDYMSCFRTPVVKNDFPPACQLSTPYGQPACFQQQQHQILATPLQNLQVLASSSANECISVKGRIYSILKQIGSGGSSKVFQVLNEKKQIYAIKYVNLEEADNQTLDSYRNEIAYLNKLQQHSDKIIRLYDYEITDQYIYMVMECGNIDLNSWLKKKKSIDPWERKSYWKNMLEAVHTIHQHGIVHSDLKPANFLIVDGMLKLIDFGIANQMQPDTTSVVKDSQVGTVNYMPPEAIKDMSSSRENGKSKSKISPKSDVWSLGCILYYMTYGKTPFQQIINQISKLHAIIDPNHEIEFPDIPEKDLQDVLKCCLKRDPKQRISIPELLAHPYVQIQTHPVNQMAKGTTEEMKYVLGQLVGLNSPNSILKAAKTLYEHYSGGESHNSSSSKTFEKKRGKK

[23] = target: Cyclin-dependent kinase 3 (Homo sapiens) (UniProt Q00526); settings: Compound concentration 1000.0 nM
Sequence of Cyclin-dependent kinase 3 (Homo sapiens) (Q00526 whole entry, looked up): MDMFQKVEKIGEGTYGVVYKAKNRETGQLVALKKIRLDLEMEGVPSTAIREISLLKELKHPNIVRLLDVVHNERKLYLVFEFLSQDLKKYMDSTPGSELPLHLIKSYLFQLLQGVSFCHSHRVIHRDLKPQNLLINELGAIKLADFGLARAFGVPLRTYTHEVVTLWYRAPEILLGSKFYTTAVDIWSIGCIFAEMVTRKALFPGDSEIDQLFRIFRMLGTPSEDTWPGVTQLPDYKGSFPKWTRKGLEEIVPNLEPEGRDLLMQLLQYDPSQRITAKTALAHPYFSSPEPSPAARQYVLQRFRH

[24] = test system: Mast/stem cell growth factor receptor Kit (Homo sapiens), P10721 [V559D]; settings: Compound concentration 1000.0 nM
[25] = target: Receptor-interacting serine/threonine-protein kinase 1 (Homo sapiens) (UniProt Q13546); settings: Compound concentration 1000.0 nM
[26] = test system: Receptor-type tyrosine-protein kinase FLT3 (Homo sapiens), P36888 [D835V]; settings: Compound concentration 1000.0 nM
[27] = test system: Leucine-rich repeat serine/threonine-protein kinase 2 (Homo sapiens), Q5S007 [G2019S]; settings: Compound concentration 1000.0 nM
[28] = target: Serine/threonine-protein kinase N2 (Homo sapiens) (UniProt Q16513); settings: Compound concentration 1000.0 nM
[29] = target: 5-hydroxytryptamine receptor 6 (Homo sapiens, UniProt P50406); settings: Compound concentration 10.0 uM
Sequence of 5-hydroxytryptamine receptor 6 (P50406 whole entry): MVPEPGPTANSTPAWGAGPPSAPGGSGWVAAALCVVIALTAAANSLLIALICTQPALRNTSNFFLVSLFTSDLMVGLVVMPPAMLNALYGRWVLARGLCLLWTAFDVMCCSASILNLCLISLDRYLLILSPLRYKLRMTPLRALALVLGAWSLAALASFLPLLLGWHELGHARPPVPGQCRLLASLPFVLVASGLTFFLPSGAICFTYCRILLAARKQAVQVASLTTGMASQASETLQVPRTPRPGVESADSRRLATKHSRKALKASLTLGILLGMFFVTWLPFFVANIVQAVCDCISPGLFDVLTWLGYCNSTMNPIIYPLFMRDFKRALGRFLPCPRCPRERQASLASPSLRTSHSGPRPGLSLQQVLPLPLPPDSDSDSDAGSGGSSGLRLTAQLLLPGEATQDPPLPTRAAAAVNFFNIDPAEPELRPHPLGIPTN

[30] = target: Serine/threonine-protein kinase MAK (Homo sapiens) (UniProt P20794); settings: Compound concentration 1000.0 nM
[31] = target: Bone morphogenetic protein receptor type-2 (Homo sapiens) (UniProt Q13873); settings: Compound concentration 1000.0 nM
[32] = target: Serine/threonine-protein kinase Chk2 (Homo sapiens) (UniProt O96017); settings: Compound concentration 1000.0 nM
[33] = target: Serine/threonine-protein kinase ULK2 (Homo sapiens) (UniProt Q8IYT8); settings: Compound concentration 1000.0 nM
[34] = target: Cyclin-dependent kinase 4 (Homo sapiens) (UniProt P11802); settings: Compound concentration 1000.0 nM
[35] = target: Serine/threonine-protein kinase 32B (Homo sapiens) (UniProt Q9NY57); settings: Compound concentration 1000.0 nM
[36] = target: Calcium/calmodulin-dependent protein kinase type 1B (Homo sapiens) (UniProt Q6P2M8); settings: Compound concentration 1000.0 nM
[37] = target: 5-hydroxytryptamine receptor 7 (Homo sapiens) (UniProt P34969); settings: Compound concentration 10.0 uM
[38] = target: Serine/threonine-protein kinase RIO3 (Homo sapiens) (UniProt O14730); settings: Compound concentration 1000.0 nM
[39] = target: Dual specificity mitogen-activated protein kinase kinase 3 (Homo sapiens) (UniProt P46734); settings: Compound concentration 1000.0 nM
Sequence of Dual specificity mitogen-activated protein kinase kinase 3 (Homo sapiens) (P46734 whole entry): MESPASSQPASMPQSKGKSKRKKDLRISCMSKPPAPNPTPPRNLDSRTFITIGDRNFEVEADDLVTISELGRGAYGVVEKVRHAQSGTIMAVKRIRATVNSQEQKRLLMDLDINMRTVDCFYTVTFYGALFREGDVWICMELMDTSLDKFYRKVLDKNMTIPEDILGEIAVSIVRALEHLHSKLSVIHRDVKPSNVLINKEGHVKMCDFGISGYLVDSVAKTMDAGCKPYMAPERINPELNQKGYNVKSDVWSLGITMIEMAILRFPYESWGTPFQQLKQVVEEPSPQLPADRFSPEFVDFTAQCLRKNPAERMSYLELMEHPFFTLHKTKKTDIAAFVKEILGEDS

[40] = target: Cyclin-dependent kinase 14 (Homo sapiens) (UniProt O94921); settings: Compound concentration 1000.0 nM
[41] = test system: ALK tyrosine kinase receptor (Homo sapiens), Q9UM73 [C1156Y]; settings: Compound concentration 1000.0 nM
[42] = target: Serine/threonine-protein kinase 3 (Homo sapiens) (UniProt Q13188); settings: Compound concentration 1000.0 nM
[43] = target: Phosphatidylinositol 4-phosphate 5-kinase type-1 alpha (Homo sapiens) (UniProt Q99755); settings: Compound concentration 1000.0 nM

Sequence of Protein kinase C iota type (Homo sapiens) (P41743 whole entry): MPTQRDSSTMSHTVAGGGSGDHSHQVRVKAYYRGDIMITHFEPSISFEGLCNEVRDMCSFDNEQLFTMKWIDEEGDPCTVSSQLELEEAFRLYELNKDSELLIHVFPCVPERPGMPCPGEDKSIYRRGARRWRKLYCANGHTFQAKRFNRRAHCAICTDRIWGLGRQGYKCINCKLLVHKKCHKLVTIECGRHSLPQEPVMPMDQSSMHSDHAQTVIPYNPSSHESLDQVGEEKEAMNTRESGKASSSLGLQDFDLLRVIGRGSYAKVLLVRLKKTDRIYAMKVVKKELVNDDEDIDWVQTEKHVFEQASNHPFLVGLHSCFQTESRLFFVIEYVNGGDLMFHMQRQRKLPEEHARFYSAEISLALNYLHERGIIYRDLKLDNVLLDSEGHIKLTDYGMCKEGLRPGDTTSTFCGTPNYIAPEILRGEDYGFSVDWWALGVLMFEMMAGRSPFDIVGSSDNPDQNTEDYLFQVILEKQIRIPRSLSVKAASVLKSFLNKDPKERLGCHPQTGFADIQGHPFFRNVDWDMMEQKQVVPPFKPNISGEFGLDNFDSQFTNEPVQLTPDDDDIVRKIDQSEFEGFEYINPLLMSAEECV
Sequence of Tyrosine-protein kinase CSK (Homo sapiens) (P41240 2-450 limits assumed): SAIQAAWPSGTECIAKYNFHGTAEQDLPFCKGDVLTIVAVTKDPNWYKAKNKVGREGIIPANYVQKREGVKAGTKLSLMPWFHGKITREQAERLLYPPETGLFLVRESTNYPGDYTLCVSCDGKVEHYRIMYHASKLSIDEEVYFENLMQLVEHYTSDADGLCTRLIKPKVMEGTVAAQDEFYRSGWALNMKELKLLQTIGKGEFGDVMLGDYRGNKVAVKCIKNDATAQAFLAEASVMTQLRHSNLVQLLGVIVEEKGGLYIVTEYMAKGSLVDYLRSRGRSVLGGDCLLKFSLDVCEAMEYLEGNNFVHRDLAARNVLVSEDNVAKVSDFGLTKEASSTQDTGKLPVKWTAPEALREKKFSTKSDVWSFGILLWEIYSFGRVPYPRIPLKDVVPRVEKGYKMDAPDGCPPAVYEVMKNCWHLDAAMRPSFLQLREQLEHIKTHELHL

With `CC(C)(O)c1cncc(-c2nc3ccc(F)cc3n2C2CC2)c1` [MSD-CYP11B2] the residual activity [1] was 100%, the residual activity [2] was 100% and the residual activity [3] was 89%. For the same compound, the residual activity [4] was 100%, the residual activity [5] was 91% and the residual activity [6] was 100%. It also gave a residual activity [7] of 100%, a residual activity [8] of 100% and a residual activity [9] of 94%. For the same compound, the residual activity [10] was 100%, the residual activity [11] was 96% and the residual activity [12] was 100%. For the same compound, the residual activity [13] was 100%, the residual activity [14] was 100% and the residual activity [15] was 100%. It also gave a residual activity [16] of 100%, a residual activity [17] of 100% and a residual activity [18] of 100%. It also gave a residual activity [19] of 98%, a residual activity [20] of 84% and a residual activity [21] of 100%. It also gave a residual activity [22] of 100%, a residual activity [23] of 100% and a residual activity [24] of 100%. It also gave a residual activity [25] of 100%, a residual activity [26] of 96% and a residual activity [27] of 100%. It also gave a residual activity [28] of 100%, an inhibition [29] of 15.6% and a residual activity [30] of 100%. The residual activity [31] was 100%, the residual activity [32] was 100% and the residual activity [33] was 100%. The residual activity [34] was 100%, the residual activity [35] was 97% and the residual activity [36] was 100%. It also gave an inhibition [37] of -2.18%, a residual activity [38] of 100% and a residual activity [39] of 100%. For the same compound, the residual activity [40] was 100%, the residual activity [41] was 100% and the residual activity [42] was 100%. The residual activity [43] was 76%.

`FC(F)(F)c1ccc2c(c1)nc(-c1cccnc1)n2C1CC1` [MSD-CYP11B2-Negative-control] gave a residual activity [1] of 100%, a residual activity [2] of 100% and a residual activity [3] of 83%. For the same compound, the residual activity [4] was 100%, the residual activity [5] was 89% and the residual activity [6] was 100%. The residual activity [7] was 100%, the residual activity [8] was 100% and the residual activity [9] was 100%. It also gave a residual activity [10] of 100%, a residual activity [11] of 92% and a residual activity [12] of 100%. It also gave a residual activity [13] of 100%, a residual activity [14] of 100% and a residual activity [15] of 86%. It also gave a residual activity [16] of 100%, a residual activity [17] of 100% and a residual activity [18] of 100%. The residual activity [19] was 100%, the residual activity [20] was 100% and the residual activity [21] was 100%. For the same compound, the residual activity [22] was 100%, the residual activity [23] was 100% and the residual activity [24] was 100%. The residual activity [25] was 100%, the residual activity [26] was 92% and the residual activity [27] was 100%. The residual activity [28] was 100%, the inhibition [29] was 60.4% and the residual activity [30] was 100%. It also gave a residual activity [31] of 100%, a residual activity [32] of 100% and a residual activity [33] of 100%. For the same compound, the residual activity [34] was 100%, the residual activity [35] was 100% and the residual activity [36] was 100%. The inhibition [37] was 0.88%, the residual activity [38] was 93% and the residual activity [39] was 100%. The residual activity [40] was 100%, the residual activity [41] was 100% and the residual activity [42] was 94%. It also gave a residual activity [43] of 71%.
